Results taken from patent US7829528B2, “Compositions and methods for treating STAT-6 associated diseases or conditions” (The Rockefeller University, priority 2004, dated 2010).
Where no end group is shown, it is not given here.

Legend:
IL-13 mRNA = experiment: Semiquantitative RT-PCR of IL-13 mRNA in splenocytes; type: cell-based, BALB/c mice; conditions: splenocytes cultured with ovalbumin plus peptide
Description: The levels of mRNA encoding IL-4, IL-13 and IFN-gamma were also evaluated by semiquantitative RT-PCR analysis. Ovalbumin-induced expression of both IL-4 and IL-13 mRNA was inhibited in splenocytes cultured with the STAT-6-IP and not the STAT-6-CP. […] The number of CD4+ T cells producing IL-4 was also quantified by intracellular cytokine staining. When splenocytes from ovalbumin-sensitized mice were cultured with ovalbumin, there was a significant increase in the number of CD4+ lymphocytes expressing IL-4 (Table 4). The increase in IL-4 expression was abrogated in splenocytes cultured with ovalbumin in the presence of the STAT-6-IP, while the STAT-6-CP had no effect.
Reverse transcriptase (RT)-PCR was used to monitor expression of mRNAs encoding IL-4, IL-13 and IFN-gamma. Materials for RNA extraction and RT-PCR were purchased from INVITROGEN™ Canada (Burlington, Ontario). Total RNA was extracted from splenocytes, treated with DNAse, and 1 μg of RNA was reverse transcribed into cDNA using SUPERSCRIPT™ II reverse transcriptase. […] PCR products were resolved by gel electrophoresis and visualized and quantified on a FLUORCHEM™ 8000 Imaging System (Alpha Innotech, San Leandro, Calif.) using ALPHAEASE™ software (Alpha Innotech). […]

[1] = test system: ovalbumin-sensitized mice; experiment: Histology of lungs; type: in vivo, BALB/c mice; conditions: compared with ovalbumin-sensitized and -challenged animals
Description: Histology was performed according to established methods (McCusker, et al. (2002) supra). Briefly, lungs were slowly inflated with 1 mL of formalin, isolated, and placed entirely in formalin. The specimens were embedded in paraffin and […] sections prepared. Slides were stained with Giemsa and examined under standard light microscopy.

[2] = test system: ovalbumin-sensitized mice; experiment: Airway hyperresponsiveness to methacholine (respiratory system resistance, FlexiVent); type: in vivo, BALB/c mice
Description: Six-to-eight week-old male BALB/c mice were obtained from Harlan-Sprague Dawley (Indianapolis, Ind.) and were housed in a conventional animal facility. For each experimental condition, a minimum of 6-8 animals was used. Awake animals were sensitized five days per week for each of two weeks by instillation in each nostril of 5 μL 1% ovalbumin in PBS. Alternatively, animals were sensitized by two weekly systemic, i.p. injections of 0.025% ovalbumin mixed with 4 mg/mL Al(OH)3. Following two weeks rest, animals were challenged for five days by intranasal instillation of 1% ovalbumin. Animals treated with peptides received the STAT-6-IP (15, 50, or 150 μg) or STAT-6-CP (50 or 150 μg) in 10 μL PBS 30 minutes prior to each ovalbumin challenge. Twenty-four hours after the last ovalbumin challenge, mice were deeply anaesthetized with xylazine and sodium pentobarbital and paralyzed with pancuronium bromide. The tail vein was cannulated for drug administration and heart rate was monitored by EKG. The trachea was exposed, a cannula inserted and secured with silk ties and then attached to a computer-controlled small-animal ventilator (FlexiVent; SCIREQ, Montreal, Quebec). Mice were ventilated quasi-sinusoidally with a tidal volume of 8 mL/kg and respiratory rate of 150 breaths/minute. Respiratory system resistance was measured. Airway hyperresponsiveness was by low dose methacholine. Methacholine was injected through the tail vein at dose of 10, 20, 40, 80, 160, 320 μg/kg and the maximal resistance and elastance were recorded. Afterward, the trachea was isolated and a 22-gauge stainless steel catheter was inserted into the proximal trachea and secured with 4-0 silk suture. The lungs were lavaged using 0.5 mL of ice cold 0.9% NaCl. The bronchoalveolar lavage (BAL) fluid was centrifuged to remove intact cells and the supernatant stored at −20° C. for IL-13 analysis by ELISA. […] Six fields were counted, each encompassing 100 cells per slide, and means obtained.

IL-13 = IL-13 in the BAL fluid (ELISA); type: in vivo, BALB/c mice; conditions: 150 μg peptide prior to each ovalbumin challenge; ovalbumin control 84.95, normal saline 55.67
Description: (§1) Six-to-eight week-old male BALB/c mice were obtained from Harlan-Sprague Dawley (Indianapolis, Ind.) and were housed in a conventional animal facility. For each experimental condition, a minimum of 6-8 animals was used. Awake animals were sensitized five days per week for each of two weeks by instillation in each nostril of 5 μL 1% ovalbumin in PBS. Alternatively, animals were sensitized by two weekly systemic, i.p. injections of 0.025% ovalbumin mixed with 4 mg/mL Al(OH)3. Following two weeks rest, animals were challenged for five days by intranasal instillation of 1% ovalbumin. Animals treated with peptides received the STAT-6-IP (15, 50, or 150 μg) or STAT-6-CP (50 or 150 μg) in 10 μL PBS 30 minutes prior to each ovalbumin challenge. Twenty-four hours after the last ovalbumin challenge, mice were deeply anaesthetized with xylazine and sodium pentobarbital and paralyzed with pancuronium bromide. The tail vein was cannulated for drug administration and heart rate was monitored by EKG. […] Respiratory system resistance was measured. […] Methacholine was injected through the tail vein at dose of 10, 20, 40, 80, 160, 320 μg/kg and the maximal resistance and elastance were recorded. […] Six fields were counted, each encompassing 100 cells per slide, and means obtained.

[3] = test system: ovalbumin-sensitized mice; experiment: Allergen-induced accumulation of granulocytes in bronchoalveolar lavage (BAL) fluid; type: in vivo, BALB/c mice
Excerpt: In the combined allergic rhinitis and asthma model, non-anaesthetized mice are locally sensitized with ovalbumin intranasally (i.n.), the primary route of allergen exposure in man (McCusker, et al. (2002) supra). Normal saline was used as a control. In both models sensitized mice produce ovalbumin-specific IgE and upon i.n. ovalbumin challenge, develop inflammation and eosinophilia in both the upper and lower airways as well as IL-13-dependent airway hyperresponsiveness (McCusker, et al. (2002) supra; Wang and McCusker (2005) Clin. Exp. Allergy 35(8):1104-11). Thus, in each model of allergic airway disease, the STAT-6-IP or control STAT-6-CP was given locally, i.n., to non-anaesthetized, ovalbumin-sensitized mice prior to each of five daily allergen challenges. Consistent with its ability to inhibit STAT-6-dependent activity in vitro, the STAT-6-IP inhibited allergen-induced accumulation of granulocytes in the lung, quantified in bronchoalveolar lavage (BAL) fluid, independent of the site of sensitization (Table 5).
as §1, with “Animals treated with peptides received the STAT-6-IP (15, 50, or 150 μg) or STAT-6-CP (50 or 150 μg) in 10 μL PBS 30 minutes prior to each ovalbumin challenge. Twenty-four hours after the last ovalbumin challenge, mice were deeply anaesthetized with xylazine and sodium pentobarbital and paralyzed with pancuronium bromide.” left out

“YARAAARQARAGRGFVSTT [STAT-6-CP, STAT-6 Tyr-641 mutant, control peptide]” was tested, and the “Inhibition of ovalbumin-induced expression of IL-13 mRNA” value (IL-13 mRNA) was “not”, the “Ovalbumin-induced lung inflammation, including airway eosinophilia (histology)” value [1] was “did not differ” and the “Response Rmax (cm H2O × s/mL ± SEM)” value ([2]; dose response, 150 μg peptide, ovalbumin control 2.02, normal saline 1.41) was 2.53 (±0.31) cm H2O × s/mL. For the same sequence, the “Response Rmax (cm H2O × s/mL ± SEM)” value ([2]; i.n. ovalbumin sensitization, 50 microgram peptide, ovalbumin control 1.92, normal saline 1.19) was 1.80 ± 0.07 cm H2O × s/mL, the “Response Rmax (cm H2O × s/mL ± SEM)” value ([2]; i.p. ovalbumin sensitization, 50 microgram peptide, ovalbumin control 1.87, normal saline 1.19) was 1.85 ± 0.06 cm H2O × s/mL and the “IL-13, pg/mL (±SEM), BAL fluid” value (IL-13) was 75.75 (±5.60) pg/mL. For the same sequence, the “Granulocytes/100 counted from BAL (±SEM)” value ([3]; dose response, 150 μg peptide, ovalbumin control 22.33, normal saline 5.00) was 21.42 ± 1.56 Granulocytes/100 counted, the “Granulocytes/100 counted from BAL (±SEM)” value ([3]; i.n. ovalbumin sensitization, 50 microgram peptide i.n. prior to each ovalbumin challenge, ovalbumin control 26.73) was 22.27 (±0.60) Granulocytes/100 counted and the “Granulocytes/100 counted from BAL (±SEM)” value ([3]; i.p. ovalbumin sensitization, 50 microgram peptide i.n. prior to each ovalbumin challenge, ovalbumin control 37.57) was 34.75 (±0.68) Granulocytes/100 counted.
